From publication PMC3006138, “Fexinidazole – A New Oral Nitroimidazole Drug Candidate Entering Clinical Development for the Treatment of Sleeping Sickness” (PLoS Neglected Tropical Diseases, 2010)

How the values were obtained:
[1] = test system: human lymphocytes; assay: In vitro micronucleus test; format: cell-based
Method: Duplicate human lymphocyte cultures were prepared from the pooled blood of two donors in two independent experiments. […] The test concentrations for micronucleus analysis were selected by evaluating the effect of fexinidazole on the replication index (RI). In each experiment, micronuclei were analysed at three concentrations. Similar tests were carried out on fexinidazole sulfone. As per the Ames test, this was carried out in the absence of rat liver S9 only.

[2] = test system: cytochrome P450 (CYP450) enzymes; assay: In vitro CYP-450 metabolism (whole panel); format: in vitro ADME, human; conditions: 1.0 µM, up to 60 min
Method: Duplicate samples of human recombinant CYP enzyme isotypes CYP1A2, CYP2B6, CYP2C8, CYP2C9, CYP2C19, CYP2D6, CYP3A4, CYP3A5 (10–30 pmol/mL) with NADPH as cofactor were incubated with fexinidazole, fexinidazole sulfoxide, or fexinidazole sulfone at a concentration of 1.0 µM for up to 60 min (pH 7.4, 37°C). Detection of the compounds was via HPLC-MS.

[3] = Chemical stability in incubation medium alone; format: physicochemical; conditions: fexinidazole 10 µM, Leibovitz medium alone, 120 min
Method: Incubations were performed in duplicate in a 48-well plate under shaking. Sampling was performed using an automatic liquid handling system (Multiprobe II EX, Packard). […] in acetonitrile (internal standard) were added, and samples centrifuged at 2000 rpm for 20 min. The supernatant was analyzed by LC-MS/MS. The chemical stability of fexinidazole was checked by incubating the compound at 37°C in the medium alone at t = 0 and 120 minutes. For the determination of phase I and phase II activity of hepatocytes, 7-ethoxycoumarin (7- […] incubated under the same conditions as fexinidazole. Aliquots of incubates were taken at 0, 10, 20, 30, 60 and 120 minutes and processed as fexinidazole samples. […] Metabolite Profile Study […] mouse, rat, dog, monkey and human hepatocytes (300000 cells/mL for the mouse and 1 million cells/mL for the other species) in a final incubation volume of 2 mL Leibovitz L-15 medium, at 37°C. Aliquots of the incubation samples were taken at t = 0, 30 and 120 minutes; the metabolism was stopped by the addition of an equal volume of cold acetonitrile and the samples centrifuged at 1500 rpm for 20 min. The supernatant was stored at -20°C until analysis. Control incubations were performed with the compound in the medium alone for 120 minutes. […] Nerviano Medical Sciences […] For the determination of phase I and phase II activities of hepatocytes, 7-ethoxycoumarin (7- […] incubated under the same conditions as fexinidazole. Aliquots of incubates were taken at 0, […] 7.5.2. Metabolite Profile Study […] pooled human hepatocytes (1 million cells/mL) in a final incubation volume of 2 mL Leibovitz L-15 medium, at 37°C. Aliquots of the incubation samples were taken at t = 0, 30 and 120 minutes; the metabolism was stopped by the addition of an equal volume of cold acetonitrile and the samples centrifuged at 1100 rpm for 20 min. The supernatant was stored at -20°C until analysis. Control incubations were performed with the compound in the medium alone for 120 minutes. […] Valco Divert Valve Step Total time (min) Position […]

[4] = test system: T. b. rhodesiense STIB900; assay: Acute infection mouse model; format: in vivo
Method: (§1) Female NMRI mice were infected via intraperitoneal injection with bloodstream forms of T. b. rhodesiense STIB900 or T. b. gambiense 130R and treated with test drugs daily for 4 consecutive days, starting on day 3 or 7 after infection, respectively, or with bloodstream forms of T. b brucei GVR35 and treated daily from day 21 after infection for 5 days. Parasitemia was evaluated by tail blood examination and surviving, aparasitaemic mice at 60, 90, or 180 days, respectively, were considered cured.

[5] = test system: T. b. gambiense 130R; assay: Acute infection mouse model; format: in vivo; conditions: 100 mg/kg×4 days po
Method: as §1

[6] = Stability of drug substance and dosing suspensions; format: physicochemical; conditions: stability data to date
Method: page 4: […] Pharmacokinetic Report for the study No. 0403-2007 4. METHODS […] […] 4.2. […] The suspensions were stored at +4°C. […] Three samples were analyzed for each suspension. 4.3. […] Blood was taken at […] 4.4.

[7] = design: method as in ref 2 (report no. 0259-2007-R); conditions: oral, normalized to 1 mg/kg, previous rat study, ref 2 (report no. 0259-2007-R); cited from earlier work
[8] = test system: rat liver cells; assay: Ex vivo unscheduled DNA synthesis; format: in vivo
Method: Groups of young male Sprague-Dawley rats received fexinidazole at doses of 500, 1000, or 2000 mg/kg orally, and the livers were sampled either 2–4 h or 12–14 h after administration. Hepatocyte suspensions were prepared and incubated in the presence of […] thymidine. Slides of fixed hepatocytes were coated in photographic emulsion and stored for 14 days at 4°C in the dark. The silver grains above the nuclei or cytoplasm (background) were counted, providing a measure of DNA uptake during DNA repair. The difference between these two counts indicated the extent of DNA repair (nuclear net grain count).

[9] = in vivo; conditions: both sexes, beagle, dog, po
Method: In the dog repeated-dose toxicokinetic study, fexinidazole was given orally by gavage once a day for 28 days to five (control and high dose) or three (low and mid dose) beagle dogs/sex/dose at the doses of 0 (control group), 50, 200, or 800 mg/kg/day. The control group received the vehicle alone (same as above). Systemic exposure to fexinidazole and of its sulfoxide and sulfone metabolites was evaluated on days 1, 14 and 28 in the same animals used for the toxicological study. Samples were taken at predose, and 30 min, 1, 2, 4, 8 and 24 h after dosing on days 1, 14, and 28, and in addition at 48 and 72 h after treatment on day 28.

With `Cn1c([N+](=O)[O-])cnc1COc1ccc(S(C)(=O)=O)cc1` [Fexinidazole sulfone] the “in vitro micronucleus test result” value [1] was “negative” and the “metabolism by the enzymes tested” value [2] was “none of the enzymes tested metabolised”.
With `Cn1c([N+](=O)[O-])cnc1COc1ccc([S+](C)[O-])cc1` (stereo not drawn) [Fexinidazole sulfoxide] the “% of total drug related material” value [3] was 18% and the “metabolism by the enzymes tested” value [2] was “none of the enzymes tested metabolised”.
In the case of `CSc1ccc(OCc2ncc([N+](=O)[O-])n2C)cc1` [Fexinidazole, 1-methyl-2-((p-(methylthio)phenoxy)methyl)-5-nitroimidazole], the Cured/infected ([4]; 25 mg/kg×4 days po) is reported as 0/4, the Mean relapse time ([4]; 25 mg/kg×4 days po) is reported as 12 days and the efficacy ([4]; 50 mg/kg twice a day for 4 days po, T. b. rhodesiense and T. b. gambiense acute models) is reported as “effective in curing”. For the same compound, the Cured/infected ([4]; 50 mg/kg×4 days po) was 1/4, the Mean relapse time ([4]; 50 mg/kg×4 days po) was >27 days and the Cured/infected ([4]; 100 mg/kg×4 days po) was 4/4. For the same compound, the Mean relapse time ([4]; 100 mg/kg×4 days po) was >60 days, the efficacy ([4]; single high dose, acute model, data not shown) was “partially curative” and the Cured/infected [5] was 3/3. The Mean relapse time [5] was >90 days, the “% of total drug related material” value [3] was “about 84%” and the “% of total drug related material” value ([3]; listed as P) was 82%. For the same compound, the stability [6] was “very stable”, the “in vitro micronucleus test result” value [1] was “did not induce the formation of micronuclei” and the Micronucleated binucleate cells ([1]; 20 μg/mL, 24-h PHA, +S9) was 0.50%. It also gave a Micronucleated binucleate cells ([1]; 20 μg/mL, 24-h PHA, −S9) of 0.50%, a Micronucleated binucleate cells ([1]; 20 μg/mL, 48-h PHA, +S9) of 0.60% and a Micronucleated binucleate cells ([1]; 20 μg/mL, 48-h PHA, −S9) of 1.1%. For the same compound, the Micronucleated binucleate cells ([1]; 40 μg/mL, 24-h PHA, +S9) was 0.55%, the Micronucleated binucleate cells ([1]; 40 μg/mL, 24-h PHA, −S9) was 0.40% and the Micronucleated binucleate cells ([1]; 40 μg/mL, 48-h PHA, +S9) was 1.20%. The Micronucleated binucleate cells ([1]; 40 μg/mL, 48-h PHA, −S9) was 0.60%, the Micronucleated binucleate cells ([1]; 80 μg/mL, 24-h PHA, +S9) was 0.75% and the Micronucleated binucleate cells ([1]; 80 μg/mL, 24-h PHA, −S9) was 0.70%. The Micronucleated binucleate cells ([1]; 80 μg/mL, 48-h PHA, +S9) was 0.40%, the Micronucleated binucleate cells ([1]; 80 μg/mL, 48-h PHA, −S9) was 0.90% and the “AUC0-∞, norm” value [7] was 45 ng⋅h/mL. For the same compound, the “Net nuclear grain count (2–4 h)” value ([8]; 500 mg/kg po) was 0.0, the “Net nuclear grain count (12–14 h)” value ([8]; 500 mg/kg po) was 0.4 and the “Net nuclear grain count (2–4 h)” value ([8]; 1000 mg/kg po) was −0.1. For the same compound, the “Net nuclear grain count (12–14 h)” value ([8]; 1000 mg/kg po) was 0.5, the “Net nuclear grain count (2–4 h)” value ([8]; 2000 mg/kg po) was −0.4 and the “Net nuclear grain count (12–14 h)” value ([8]; 2000 mg/kg po) was 0.2. The UDS study result ([8]; rat, in vivo) was “confirmed the lack of mammalian genotoxic activity” and the NOAEL at 28 days [9] was 200 mg/kg/day.
